From PubChem BioAssay (NCI)
Values joined by “and” are separate entries in the source; they are usually repeats but may differ in a detail not shown here. Equal entries are not always repeated.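 Test compounds were applied to cells in 96-well plates for 48 hours at 5 doses. GI50 is the concentration that inhibits growth by half. Definition used: TGI = concentration required for complete inhibition of growth.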

The molecules below were run on SK-OV-3 ovarian (assay: NCI tumour cell line growth inhibition, 48 h).
`Nc1n[nH]c2cccc(C#Cc3cccc(C(=O)Nc4ccc(CN5CCOCC5)c(C(F)(F)F)c4)c3)c12` showed a GI50 of 4 µM and a TGI of 17.5 µM. `COc1ccc(-c2cn[nH]c2-c2cc(OC)c(OC)c(OC)c2)cc1` showed a GI50 of 0.0293 µM and a TGI of 9.12 µM. `Nc1ccccc1SC(CC(=O)c1ccccc1)c1cccc([N+](=O)[O-])c1` (configuration not stated) was tested, and the GI50 was 18.1 µM and the TGI was 32 µM. In the case of `O=C(/C=C/c1ccc([N+](=O)[O-])cc1)c1ccc(NCc2nc3ccccc3[nH]2)cc1`, the TGI is reported as 30.1 µM. For `COc1ccc2nc(NC(=O)CSc3nnc4n3S(=O)(=O)c3ccccc3N4c3ccccc3)sc2c1`, the GI50 was greater than 100 µM and the TGI was greater than 100 µM. Work on `O=c1ccc2ccccc2cc1[O-].O=c1ccc2ccccc2cc1[O-].[O]=[U+2]=[O]` yielded a GI50 of 30.2 µM and a TGI of 71.2 µM. With `O=C1NC(=NC(CO)Cc2ccccc2)S/C1=C\c1ccc2ncccc2c1` (configuration not stated) the GI50 was 14.1 µM and 3.74 µM and the TGI was > 25 µM and 21.2 µM. `COC(=O)C(CCCN1C(=O)c2ccccc2C1=O)C(=O)OC` was tested, and the TGI was greater than 100 µM. Work on `COc1nc(NC2OC(COC(C)=O)C(OC(C)=O)C(OC(C)=O)C2OC(C)=O)c2c(OC(C)=O)cc(=O)oc2n1` (configuration not stated) yielded a TGI greater than 100 µM. `CC(C)(C)c1cc2c(O)c3cccc4c(=O)c5cccc6c5-c(c34)c2c(c1)c6=O` was tested, and the TGI was greater than 100 µM. `Nc1cc(NN=C(c2ccc(O)cc2)c2ccc(O)cc2)c([N+](=O)[O-])cc1[N+](=O)[O-]` showed a GI50 of 2.35 µM and a TGI of 6.4 µM. Molecule `Nc1c(C(=O)Nc2cccc(C(F)(F)F)c2)sc2nc3c(cc12)CCCCC3` has a GI50 of 1.85 µM and a TGI of 4.36 µM. `CCCCN(CCCC)C(=O)C(=O)C(C(=O)c1ccc(OC)cc1)c1ccc(OC)cc1` (configuration not stated) was tested, and the TGI was greater than 100 µM. In the case of `C=C(C)CCOC(c1ccccc1)(c1ccccc1)c1ccccc1`, the TGI is reported as greater than 100 µM. `COc1ccc(C)cc1-c1cc(Sc2ccccc2)c(-c2cc(C)ccc2OC)o1` showed a TGI greater than 31.6 µM. `CC(=O)O/N=C(/C)c1ccccc1O` showed a TGI greater than 100 µM. With `CCCCCCCCCCCCC(O)c1ccc(C#CCCCCCCCCCO)o1` (configuration not stated) the GI50 was 25.8 µM and the TGI was 62.2 µM. Molecule `COc1ccc(CCN=C2NC(=O)/C(=C/c3ccc4ncccc4c3)S2)cc1` has a GI50 greater than 25 µM and a TGI greater than 25 µM. Molecule `CN(C)CCn1c2c3ccccc3ccc2c2oc(=O)c3ccccc3c21` has a TGI of 7.35 µM.

The molecules below were run on RPMI-8226 leukemia (assay: NCI tumour cell line growth inhibition, 48 h).
With `COC(=O)CC(c1ccccc1)C1(c2ccccc2)SCCS1` (configuration not stated) the TGI was greater than 290 µM. `CCOC(=O)C1=C(C(=O)OCC)C2c3ccccc3C=CN2C(C(=O)OCC)=C(SC)S1` (configuration not stated) showed a TGI greater than 100 µM. In the case of `CCCCCCCCCCCCCCCC[N+](C)(C)Cc1ccccc1`, the GI50 is reported as 0.0516 µM and the TGI is reported as 0.239 µM. `CCCCCC[C@@H]1CCC2C(CO)[C@@H](O)CC[C@@H]2C1` (some centres not stated) was tested, and the TGI was 63.2 µM. Molecule `CCN(Cc1ccc(F)cc1)c1cc(Cl)c(CO)c(Cl)c1` has a GI50 of 10.7 µM and a TGI of 42.9 µM. Molecule `NC(=O)c1ccccc1NC(=O)C(=O)C(C(=O)c1ccc(Cl)c(Cl)c1)C1OC(=O)c2ccccc21` (configuration not stated) has a TGI greater than 100 µM. `S=c1sc2c(n1-c1ccccc1)NC=NC2S` (configuration not stated) gave a TGI greater than 100 µM. Molecule `Cc1csc(-c2nnc(Nc3ccc(Oc4ncccc4-c4ccnc(N)n4)cc3)c3ccccc23)c1` has a GI50 of 3.05 µM and a TGI greater than 100 µM. Molecule `Cc1ccc(/C=C/C(=O)CCN(C)C)cc1` has a TGI greater than 100 µM. `COc1cc(C2CC(C)(O)Oc3cc4c(cc32)OCO4)cc(OC)c1OC` (configuration not stated) gave a TGI of 18.7 µM. Molecule `CCCCCCCCCCn1cc[n+](C)c1` has a GI50 of 0.109 µM and a TGI of 0.448 µM. `CC1SC(c2ccc(F)cc2)N(NC(=O)C(O)c2ccccc2)C1=O` (configuration not stated) showed a GI50 greater than 100 µM and a TGI greater than 100 µM. For `O=C(Oc1ccc(Cl)cc1)c1ccccc1Nc1ccnc(C(F)(F)F)c1`, the GI50 was 2.87 µM and the TGI was 8.28 µM. Work on `Cc1cc2c(C)[nH]nc2c(C(=O)O)c1C` yielded a TGI greater than 100 µM. `Nc1n[nH]c2cccc(C#Cc3cccc(C(=O)Nc4ccc(CN5CCOCC5)c(C(F)(F)F)c4)c3)c12` showed a GI50 of 1.76 µM and a TGI of 5.62 µM. `COc1ccc(-c2cn[nH]c2-c2cc(OC)c(OC)c(OC)c2)cc1` showed a GI50 of 0.0429 µM and a TGI of 5.16 µM. `Nc1ccccc1SC(CC(=O)c1ccccc1)c1cccc([N+](=O)[O-])c1` (configuration not stated) was tested, and the GI50 was 3.89 µM and the TGI was 19 µM. With `COc1ccc2nc(NC(=O)CSc3nnc4n3S(=O)(=O)c3ccccc3N4c3ccccc3)sc2c1` the GI50 was 1.45 µM and the TGI was greater than 100 µM. Molecule `O=c1ccc2ccccc2cc1[O-].O=c1ccc2ccccc2cc1[O-].[O]=[U+2]=[O]` has a GI50 of 17 µM and a TGI greater than 100 µM. `O=C1NC(=NC(CO)Cc2ccccc2)S/C1=C\c1ccc2ncccc2c1` (configuration not stated) was tested, and the GI50 was > 18.4 µM and 2.33 µM and the TGI was > 25 µM and 12.1 µM. Molecule `COc1nc(NC2OC(COC(C)=O)C(OC(C)=O)C(OC(C)=O)C2OC(C)=O)c2c(OC(C)=O)cc(=O)oc2n1` (configuration not stated) has a TGI greater than 100 µM. With `Nc1cc(NN=C(c2ccc(O)cc2)c2ccc(O)cc2)c([N+](=O)[O-])cc1[N+](=O)[O-]` the GI50 was 2.15 µM and the TGI was 6.46 µM. `Nc1c(C(=O)Nc2cccc(C(F)(F)F)c2)sc2nc3c(cc12)CCCCC3` showed a GI50 of 4.32 µM and a TGI of 35.5 µM. `C=C(C)CCOC(c1ccccc1)(c1ccccc1)c1ccccc1` gave a TGI greater than 100 µM. Molecule `COc1ccc(C)cc1-c1cc(Sc2ccccc2)c(-c2cc(C)ccc2OC)o1` has a TGI greater than 31.6 µM. In the case of `CC(=O)O/N=C(/C)c1ccccc1O`, the TGI is reported as greater than 100 µM. Work on `CC1(C)OC1COc1c2occc2cc2ccc(=O)oc12` (configuration not stated) yielded a TGI greater than 100 µM. In the case of `CCCCCCCCCCCCC(O)c1ccc(C#CCCCCCCCCCO)o1` (configuration not stated), the GI50 is reported as 27.2 µM and the TGI is reported as 71.3 µM. `COc1ccc(CCN=C2NC(=O)/C(=C/c3ccc4ncccc4c3)S2)cc1` was tested, and the GI50 was greater than 25 µM and the TGI was greater than 25 µM. Molecule `CN(C)CCn1c2c3ccccc3ccc2c2oc(=O)c3ccccc3c21` has a TGI of 43.2 µM.

These molecules were tested on A498 renal (assay: NCI tumour cell line growth inhibition, 48 h).
For `CCCCCCCCCCCCCCCC[N+](C)(C)Cc1ccccc1`, the GI50 was 1.92 µM and 1.87 µM and the TGI was 6.3 µM and 4.83 µM. `CCN(Cc1ccc(F)cc1)c1cc(Cl)c(CO)c(Cl)c1` gave a GI50 of 1.37 µM and a TGI of 6.39 µM. `NC(=O)c1ccccc1NC(=O)C(=O)C(C(=O)c1ccc(Cl)c(Cl)c1)C1OC(=O)c2ccccc21` (configuration not stated) was tested, and the TGI was greater than 100 µM. In the case of `COc1cc(-c2ccc3cc(OC)c(OC)c(OC)c3c2)cc(OC)c1OC`, the GI50 is reported as 11.1 µM and the TGI is reported as 91.8 µM. `Cc1csc(-c2nnc(Nc3ccc(Oc4ncccc4-c4ccnc(N)n4)cc3)c3ccccc23)c1` showed a GI50 greater than 100 µM and a TGI greater than 100 µM. With `Cc1ccc(/C=C/C(=O)CCN(C)C)cc1` the TGI was greater than 100 µM. With `COc1cc(C2CC(C)(O)Oc3cc4c(cc32)OCO4)cc(OC)c1OC` (configuration not stated) the TGI was greater than 100 µM. `CCCCCCCCCCn1cc[n+](C)c1` was tested, and the GI50 was 0.383 µM and the TGI was 9.73 µM. `CC1SC(c2ccc(F)cc2)N(NC(=O)C(O)c2ccccc2)C1=O` (configuration not stated) showed a GI50 greater than 100 µM and a TGI greater than 100 µM. `Cc1cc2c(C)[nH]nc2c(C(=O)O)c1C` showed a TGI greater than 100 µM. `COc1ccc(-c2cn[nH]c2-c2cc(OC)c(OC)c(OC)c2)cc1` showed a TGI of 0.0715 µM. With `Nc1ccccc1SC(CC(=O)c1ccccc1)c1cccc([N+](=O)[O-])c1` (configuration not stated) the GI50 was 16.6 µM and the TGI was 30.9 µM. Molecule `O=C(/C=C/c1ccc([N+](=O)[O-])cc1)c1ccc(NCc2nc3ccccc3[nH]2)cc1` has a TGI of 24.1 µM. `COc1ccc2nc(NC(=O)CSc3nnc4n3S(=O)(=O)c3ccccc3N4c3ccccc3)sc2c1` gave a GI50 greater than 100 µM and a TGI greater than 100 µM. In the case of `O=c1ccc2ccccc2cc1[O-].O=c1ccc2ccccc2cc1[O-].[O]=[U+2]=[O]`, the GI50 is reported as 18.6 µM and the TGI is reported as 43.1 µM. With `O=C1NC(=NC(CO)Cc2ccccc2)S/C1=C\c1ccc2ncccc2c1` (configuration not stated) the GI50 was > 15.2 µM and 1.96 µM and the TGI was > 25 µM and 7.67 µM. Work on `COC(=O)C(CCCN1C(=O)c2ccccc2C1=O)C(=O)OC` yielded a TGI greater than 100 µM. In the case of `COc1nc(NC2OC(COC(C)=O)C(OC(C)=O)C(OC(C)=O)C2OC(C)=O)c2c(OC(C)=O)cc(=O)oc2n1` (configuration not stated), the TGI is reported as 30.2 µM. In the case of `CC(C)(C)c1cc2c(O)c3cccc4c(=O)c5cccc6c5-c(c34)c2c(c1)c6=O`, the TGI is reported as greater than 100 µM. Work on `Nc1cc(NN=C(c2ccc(O)cc2)c2ccc(O)cc2)c([N+](=O)[O-])cc1[N+](=O)[O-]` yielded a GI50 of 1.69 µM and a TGI of 3.55 µM. For `Nc1c(C(=O)Nc2cccc(C(F)(F)F)c2)sc2nc3c(cc12)CCCCC3`, the GI50 was 1.53 µM and the TGI was 7.08 µM. `COc1ccc(C)cc1-c1cc(Sc2ccccc2)c(-c2cc(C)ccc2OC)o1` was tested, and the TGI was greater than 31.6 µM. With `CC1(C)OC1COc1c2occc2cc2ccc(=O)oc12` (configuration not stated) the TGI was greater than 100 µM. Molecule `COc1ccc(CCN=C2NC(=O)/C(=C/c3ccc4ncccc4c3)S2)cc1` has a GI50 greater than 18.3 µM and a TGI greater than 25 µM.
